Test results as given in patent publication EP0001516A1, “Beta-Lactam compounds, processes for their preparation, pharmaceutical compositions containing them and intermediates of use in their preparation” (GLAXO GROUP LIMITED, priority 1977, dated 1979).

Key:
Staph. aureus 853E [1] = experiment: Minimum Inhibitory Concentration (MIC), agar dilution; assay type: cell-based; details: 18 hours at 37°C
From the text: (§1) Serial two-fold dilutions of freshly prepared test solution were made into Oxoid No. 1 Nutrient agar with or without added enrichment and poured into petri dishes. Plates were innoculated with a multipoint innoculator with innoculum containing approximately 10^5 colony forming units of the organisms shown in Table 1, all of which are clinical isolates.

S. marcescens 1324E = experiment: as above; assay type: cell-based; details: 18 hours at 37°C
From the text: as §1

E. coli 851E = experiment: as above; assay type: cell-based; details: 18 hours at 37°C
From the text: as §1

E. cloacae 1321E = experiment: as above; assay type: cell-based; details: 18 hours at 37°C
From the text: as §1

E. cloacae 1051E = experiment: as above; assay type: cell-based; details: 18 hours at 37°C
From the text: as §1

H. influenzae 1184E = experiment: as above; assay type: cell-based; details: 18 hours at 37°C
From the text: as §1

K. aerogenes 1522E = experiment: as above; assay type: cell-based; details: 18 hours at 37°C
From the text: as §1

E. coli (TEM^+) 1193E = experiment: Synergy testing with amoxycillin (MIC, agar dilution); assay type: cell-based
From the text: as §1
(§2) Method as for 1, incorporating amoxycillin in serial two-fold dilutions along with a sub-inhibitory, fixed concentration of the test clavulanic acid derivative, as shown in the Table. All of the organisms are clinical isolates.

K. aerogenes 1963E = experiment: as above; assay type: cell-based
From the text: as §1, §2

Pr. rettgeri 1356E = experiment: as above; assay type: cell-based
From the text: as §1, §2

Toxicity in mice = details: mouse, in vivo, ip; administered intraperitoneally to mice
Micrococcus SP 1810E = experiment: Minimum Inhibitory Concentration (MIC), agar dilution; assay type: cell-based; details: 18 hours at 37°C
From the text: as §1

[2] = biological target: partially purified β-lactamase K1; experiment: β-Lactamase inhibition (hydrolysis of ampicillin); assay type: biochemical; details: β-lactamase KI; ampicillin sodium 500 µg/ml, 37°C, pH7
Experimental: (§3) The compounds have been tested for their inhibitory activity against partially purified β-lactamases from Escherichia coli (either TEM or RPI), Klebsiella aerogenes (K1) and Staphylococcus aureus (PCI). The substrate used was ampicillin sodium.
(§4) Ampicillin sodium at a concentration of 500 µg/ml was reacted with the enzyme at 37°C and pH7. The enzyme concentration was such as to destroy all the ampicillin within 10 minutes. The reaction was followed spectrophotometrically by observing the loss of absorption at 238 nm. Concentrations of the compound were added to inhibit the reaction, and the I5O value represents µg/ml of compound halving the initial velocity of hydrolysis of ampicillin.

[3] = biological target: T1, partially purified β-lactamase PCI (Staphylococcus aureus, UniProt P00807); experiment: β-Lactamase inhibition (hydrolysis of ampicillin); assay type: biochemical; details: ampicillin sodium 500 µg/ml, 37°C, pH7, read-out: μg/ml of compound giving 50% inhibition of hydrolysis of ampicillin (converted)
T1 construct: partially purified β-lactamases from Escherichia coli (either TEM or RPI), Klebsiella aerogenes (K1) and Staphylococcus aureus (PCI); endogenous in cells; host or cells: Staphylococcus aureus (PCI), enzyme partially purified from the producing bacterium
Experimental: as §3, §4

[4] = biological target: T2, partially purified β-lactamase TEM (Escherichia coli, UniProt P62593); experiment: β-Lactamase inhibition (hydrolysis of ampicillin); assay type: biochemical; details: ampicillin sodium 500 µg/ml, 37°C, pH7, read-out: μg/ml of compound giving 50% inhibition of hydrolysis of ampicillin (converted)
T2 construct: partially purified β-lactamases from Escherichia coli (either TEM or RPI); endogenous in cells; host or cells: Escherichia coli carrying the TEM plasmid, enzyme partially purified from the bacterium
Experimental: as §3, §4

Staph. aureus 853E [5] = experiment: Synergy testing with amoxycillin (MIC, agar dilution); assay type: cell-based; details: amoxycillin alone
From the text: as §1, §2

[6] = in the presence of 1µg/ml of compound
[7] = in the presence of 4µg/ml of compound

T2 sequence (P62593 24-286 limits assumed): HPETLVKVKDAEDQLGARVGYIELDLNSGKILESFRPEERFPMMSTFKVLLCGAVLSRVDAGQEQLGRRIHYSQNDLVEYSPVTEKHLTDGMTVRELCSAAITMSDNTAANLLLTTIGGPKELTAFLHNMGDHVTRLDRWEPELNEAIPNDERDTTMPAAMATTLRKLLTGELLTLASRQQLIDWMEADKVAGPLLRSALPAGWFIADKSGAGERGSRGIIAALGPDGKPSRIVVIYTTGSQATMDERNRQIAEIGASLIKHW
T1 sequence (P00807 25-281): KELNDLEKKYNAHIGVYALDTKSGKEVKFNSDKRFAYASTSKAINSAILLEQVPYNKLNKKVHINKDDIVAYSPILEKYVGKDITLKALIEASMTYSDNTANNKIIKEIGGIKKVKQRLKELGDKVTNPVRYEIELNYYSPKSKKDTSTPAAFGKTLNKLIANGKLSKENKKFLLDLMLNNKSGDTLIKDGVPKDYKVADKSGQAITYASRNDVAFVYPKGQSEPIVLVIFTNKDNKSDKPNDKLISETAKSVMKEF

O=C(O)[C@H]1/C(=C/Cn2ccnn2)O[C@@H]2CC(=O)N21 [Example 22]
MIC (agar dilution) of compound (Staph. aureus 853E [1]; Staph. aureus 853E): 2 µg/mL | MIC (agar dilution) of compound (S. marcescens 1324E): 8 µg/mL | MIC (agar dilution) of compound (E. coli 851E): 4 µg/mL | MIC (agar dilution) of compound (E. cloacae 1321E): 8 µg/mL | MIC (agar dilution) of compound (E. cloacae 1051E): 8 µg/mL | MIC (agar dilution) of compound (H. influenzae 1184E): 16 µg/mL | MIC (agar dilution) of compound (K. aerogenes 1522E): 8 µg/mL

CCOC(=O)c1cn(C/C=C2\O[C@@H]3CC(=O)N3[C@H]2C(=O)O)nn1 [Example 4]
MIC of amoxycillin (E. coli (TEM^+) 1193E; [6]): > 250 µg/mL | MIC of amoxycillin (K. aerogenes 1963E; [6]): 2 µg/mL | MIC of amoxycillin (Pr. rettgeri 1356E; [6]): 125 µg/mL | MIC of amoxycillin (Pr. rettgeri 1356E; [7]): 4 µg/mL | LD50 (Toxicity in mice): > 500 mg/kg | MIC (agar dilution) of compound (Staph. aureus 853E [1]; Staph. aureus 835E): <0.1 µg/mL | MIC (agar dilution) of compound (S. marcescens 1324E): 125 µg/mL | MIC (agar dilution) of compound (Micrococcus SP 1810E): <0.1 µg/mL | MIC (agar dilution) of compound (E. coli 851E): 4 µg/mL | MIC (agar dilution) of compound (E. cloacae 1321E): 16 µg/mL | MIC (agar dilution) of compound (E. cloacae 1051E): 16 µg/mL | MIC (agar dilution) of compound (H. influenzae 1184E): 62 µg/mL | MIC (agar dilution) of compound (K. aerogenes 1522E): 8 µg/mL | μg/ml of compound giving 50% inhibition of hydrolysis of ampicillin [2]: 0.35 µg/mL | IC50 [3]: 419 nM

COC(=O)c1cn(C/C=C2\O[C@@H]3CC(=O)N3[C@H]2C(=O)O)nn1 [Example 19, Sodium (3R,5R,Z)-2-[2-(4-methoxycarbonyl-1,2,3-triazol-1-y)ethylidene]clavam-3-carboxylate]
MIC of amoxycillin (Pr. rettgeri 1356E; [6]): 16 µg/mL | MIC of amoxycillin (Pr. rettgeri 1356E; [7]): 1 µg/mL | LD50 (Toxicity in mice): > 500 mg/kg | MIC (agar dilution) of compound (Staph. aureus 853E [1]; Staph. aureus 853E): 0.5 µg/mL | MIC (agar dilution) of compound (S. marcescens 1324E): 62 µg/mL | MIC (agar dilution) of compound (E. coli 851E): 4 µg/mL | MIC (agar dilution) of compound (E. cloacae 1321E): 16 µg/mL | MIC (agar dilution) of compound (E. cloacae 1051E): 16 µg/mL | MIC (agar dilution) of compound (H. influenzae 1184E): 62 µg/mL | MIC (agar dilution) of compound (K. aerogenes 1522E): 16 µg/mL

NC(=O)c1cn(C/C=C2\O[C@@H]3CC(=O)N3[C@H]2C(=O)O)nn1 [Example 12]
MIC of amoxycillin (E. coli (TEM^+) 1193E; [6]): 62 µg/mL | MIC of amoxycillin (E. coli (TEM^+) 1193E; [7]): 1 µg/mL | MIC of amoxycillin (K. aerogenes 1963E; [6]): 1 µg/mL | MIC of amoxycillin (K. aerogenes 1963E; [7]): < 0.1 µg/mL | MIC of amoxycillin (Pr. rettgeri 1356E; [6]): 8 µg/mL | MIC of amoxycillin (Pr. rettgeri 1356E; [7]): 1 µg/mL | MIC (agar dilution) of compound (Staph. aureus 853E [1]; Staph. aureus 853E): 0.5 µg/mL | MIC (agar dilution) of compound (S. marcescens 1324E): 8 µg/mL | MIC (agar dilution) of compound (Micrococcus SP 1810E): 0.2 µg/mL | MIC (agar dilution) of compound (E. coli 851E): 4 µg/mL | MIC (agar dilution) of compound (E. cloacae 1321E): 4 µg/mL | MIC (agar dilution) of compound (E. cloacae 1051E): 4 µg/mL | MIC (agar dilution) of compound (H. influenzae 1184E): 31 µg/mL | MIC (agar dilution) of compound (K. aerogenes 1522E): 8 µg/mL | μg/ml of compound giving 50% inhibition of hydrolysis of ampicillin [2]: 0.34 µg/mL | IC50 [4]: 426 nM | IC50 [3]: 1230 nM

CCOC(=O)c1nnn(C/C=C2\O[C@@H]3CC(=O)N3[C@H]2C(=O)O)c1C(=O)OCC [Example 2, Sodium (3R,5R,Z)-2-[2-(4,5-diethoxcarbonl-1,2,3-triazol-1-yl)-ethylidene]-clavam-3-carboxylate]
μg/ml of compound giving 50% inhibition of hydrolysis of ampicillin [2]: 0.8 µg/mL | IC50 [4]: 761 nM | IC50 [3]: 5330 nM

O=C(O)c1cn(C/C=C2\O[C@@H]3CC(=O)N3[C@H]2C(=O)O)nn1 [Example 8, Disodium (3R,5R.Z)-2-[2-(4-carboxy-1.2.3-triazol-l-yl)-ethylidene]-clavam-3-carboxylate]
MIC (agar dilution) of compound (Staph. aureus 853E [1]; Staph. aureus 835E): 8 µg/mL | MIC (agar dilution) of compound (S. marcescens 1324E): 31 µg/mL | MIC (agar dilution) of compound (Micrococcus SP 1810E): 8 µg/mL | MIC (agar dilution) of compound (E. coli 851E): 8 µg/mL | MIC (agar dilution) of compound (E. cloacae 1321E): 8 µg/mL | MIC (agar dilution) of compound (E. cloacae 1051E): 16 µg/mL | MIC (agar dilution) of compound (H. influenzae 1184E): 31 µg/mL | MIC (agar dilution) of compound (K. aerogenes 1522E): 16 µg/mL | μg/ml of compound giving 50% inhibition of hydrolysis of ampicillin [2]: 0.22 µg/mL | IC50 [4]: 374 nM | IC50 [3]: 9860 nM

CC1(C)S[C@@H]2[C@H](NC(=O)[C@H](N)c3ccc(O)cc3)C(=O)N2[C@H]1C(=O)O [amoxycillin, reference compound]
MIC of amoxycillin (Staph. aureus 853E [5]): 2 µg/mL | MIC of amoxycillin (E. coli (TEM^+) 1193E; amoxycillin alone): > 250 µg/mL | MIC of amoxycillin (K. aerogenes 1963E; amoxycillin alone): 62 µg/mL | MIC of amoxycillin (Pr. rettgeri 1356E; amoxycillin alone): > 250 µg/mL

N#Cc1cn(C/C=C2\O[C@@H]3CC(=O)N3[C@H]2C(=O)O)nn1 [Example 17, Sodium (3R,5R,Z)-2-[2-(4-cyano-1,2,3-triazol-1-yl)-ethylidene]clavam-3-carboxylate]
MIC of amoxycillin (E. coli (TEM^+) 1193E; [6]): 31 µg/mL | MIC of amoxycillin (K. aerogenes 1963E; [6]): 2 µg/mL | MIC of amoxycillin (K. aerogenes 1963E; [7]): 0.5 µg/mL | MIC of amoxycillin (Pr. rettgeri 1356E; [6]): 31 µg/mL | MIC of amoxycillin (Pr. rettgeri 1356E; [7]): 2 µg/mL | LD50 (Toxicity in mice): > 500 mg/kg | MIC (agar dilution) of compound (Staph. aureus 853E [1]; Staph. aureus 835E): <0.1 µg/mL | MIC (agar dilution) of compound (S. marcescens 1324E): 31 µg/mL | MIC (agar dilution) of compound (E. coli 851E): 2 µg/mL | MIC (agar dilution) of compound (E. cloacae 1321E): 4 µg/mL | MIC (agar dilution) of compound (E. cloacae 1051E): 4 µg/mL | MIC (agar dilution) of compound (H. influenzae 1184E): 16 µg/mL | MIC (agar dilution) of compound (K. aerogenes 1522E): 8 µg/mL | μg/ml of compound giving 50% inhibition of hydrolysis of ampicillin [2]: 0.39 µg/mL | IC50 [4]: 363 nM | IC50 [3]: 2540 nM

CC(=O)c1cnnn1C/C=C1\O[C@@H]2CC(=O)N2[C@H]1C(=O)O [Example 10, Sodium (3R,5R.Z)-2-[2-(5-acetvl-1.2,3-triazol-l-yl)-ethylidene]-clavam-3-carboxylate]
μg/ml of compound giving 50% inhibition of hydrolysis of ampicillin [2]: 0.62 µg/mL | IC50 [4]: 1980 nM | IC50 [3]: 2400 nM

CC(=O)c1cn(C/C=C2\O[C@@H]3CC(=O)N3[C@H]2C(=O)O)nn1 [Example 6, Sodium (3R,5R,Z)-2-[2-(4-acetyl-1,2,3-triazol-l-yl)-ethlidene]-clavam-3-carboxylate]
LD50 (Toxicity in mice): > 500 mg/kg | MIC (agar dilution) of compound (Staph. aureus 853E [1]; Staph. aureus 835E): <0.1 µg/mL | MIC (agar dilution) of compound (S. marcescens 1324E): 62 µg/mL | MIC (agar dilution) of compound (Micrococcus SP 1810E): <0.1 µg/mL | MIC (agar dilution) of compound (E. coli 851E): 4 µg/mL | MIC (agar dilution) of compound (E. cloacae 1321E): 8 µg/mL | MIC (agar dilution) of compound (E. cloacae 1051E): 8 µg/mL | MIC (agar dilution) of compound (H. influenzae 1184E): 62 µg/mL | MIC (agar dilution) of compound (K. aerogenes 1522E): 8 µg/mL | μg/ml of compound giving 50% inhibition of hydrolysis of ampicillin [2]: 0.155 µg/mL | IC50 [3]: 616 nM
